# Data reported in patent publication US4172891A, “Cephalosporins” (Takeda Chemical Industries, Inc., priority 1976, dated 1979).
# Where two headings read alike, the source gives them in different places.
# Columns and labels:
# P. vulgaris IFO 3988 = experiment: Minimum Inhibitory Concentration, agar dilution, P. vulgaris IFO 3988; type: cell-based; conditions: Proteus vulgaris
# Text: (§1) […]. | Minimum Inhibitory Concentrations (mcg/ml, agar dilution)
# Cit. freundii GN 99 = experiment: Minimum Inhibitory Concentration, agar dilution, Cit. freundii GN 99; type: cell-based; conditions: Citrobacter freundii
# Text: as §1
# E. coli NIHJ = experiment: Minimum Inhibitory Concentration, agar dilution, E. coli NIHJ; type: cell-based; conditions: Escherichia coli, read-out: Minimum Inhibitory Concentration
# Text: as §1
# K. pneumoniae DT = experiment: Minimum Inhibitory Concentration, agar dilution, K. pneumoniae DT; type: cell-based; conditions: Klebsiella pneumoniae, read-out: Minimum Inhibitory Concentration
# Text: as §1
# P. rettgeri 8(TNO 336) = experiment: Minimum Inhibitory Concentration, agar dilution, P. rettgeri 8(TNO 336); type: cell-based, Proteus rettgeri; conditions: Providencia rettgeri
# Text: as §1
# E. coli O-111 = experiment: Minimum Inhibitory Concentration, agar dilution, E. coli O-111; type: cell-based; conditions: Escherichia coli
# Text: Following each example is a tabulation of the minimal inhibitory concentrations (MIC) of the present compound [I] obtained in accordance with the particular example against several representative gram-negative bacteria and the corresponding concentrations of cephaloridine [7-(2-thienylacetamido)-3-(1-pyridyl)methyl-3-cephem-4-carboxylic acid betaine] and cefazolin [sodium 7-(1H-tetrazol-1-yl)acetamido-3-(2-methyl-1,3,4-thiadiazol-5-yl)thiomethyl-3-cephem-4-carboxylate], both of which are typical cephalosporins commercially available and clinically accepted nowadays [The New England Journal of Medicine 294, 24 (1976) and Journal of Pharmaceutical Science 64, 1899 (1975)]. There are also shown the effective doses of the typical compounds of this invention on the mice infected with Escherichia coli in comparison with that of cephaloridine.
# Minimum Inhibitory Concentrations (mcg/ml, agar dilution)
# P. mirabilis GN 4359 = experiment: Minimum Inhibitory Concentration, agar dilution, P. mirabilis GN 4359; type: cell-based; conditions: Proteus mirabilis
# Text: as §1
# P. rettgeri GN 4733 = experiment: Minimum Inhibitory Concentration, agar dilution, P. rettgeri GN 4733; type: cell-based, Proteus rettgeri; conditions: Providencia rettgeri
# Text: as §1
# Cit. freundii GN 1706 = experiment: Minimum Inhibitory Concentration, agar dilution, Cit. freundii GN 1706; type: cell-based; conditions: Citrobacter freundii
# Text: as §1
# E. coli T-7 = experiment: Minimum Inhibitory Concentration, agar dilution, E. coli T-7; type: cell-based; conditions: Escherichia coli
# Text: as §1
# P. morganii IFO 3168 = experiment: Minimum Inhibitory Concentration, agar dilution, P. morganii IFO 3168; type: cell-based, Proteus morganii; conditions: Morganella morganii
# Text: as §1
# K. pneumoniae GN 3835 = experiment: Minimum Inhibitory Concentration, agar dilution, K. pneumoniae GN 3835; type: cell-based; conditions: Klebsiella pneumoniae
# Text: as §1
# Ent. cloacae IFO 12937 = experiment: Minimum Inhibitory Concentration, agar dilution, Ent. cloacae IFO 12937; type: cell-based; conditions: Enterobacter cloacae
# [1] = IFO3988, P. vulgaris IFO 3988, agar dilution, read-out: Minimum Inhibitory Concentration
# [2] = GN99, Cit. freundii GN 99, agar dilution, read-out: Minimum Inhibitory Concentration
# [3] = K. pneumoniae DT, agar dilution
# [4] = P. rettgeri 8(TNO 336), read-out: Minimum Inhibitory Concentration
# [5] = O111, E. coli O-111, agar dilution, read-out: Minimum Inhibitory Concentration
# [6] = GN4359, P. mirabilis GN 4359, agar dilution, read-out: Minimum Inhibitory Concentration
# [7] = GN4733, P. rettgeri GN 4733, agar dilution, read-out: Minimum Inhibitory Concentration
# [8] = GN1706, Cit. freundii GN 1706, agar dilution, read-out: Minimum Inhibitory Concentration
# [9] = T7, E. coli T-7, agar dilution, read-out: Minimum Inhibitory Concentration
# [10] = IFO3168, P. morganii IFO 3168, agar dilution, read-out: Minimum Inhibitory Concentration
# [11] = IFO3988, read-out: Minimum Inhibitory Concentration
# [12] = GN99, read-out: Minimum Inhibitory Concentration
# [13] = GN3835, read-out: Minimum Inhibitory Concentration
# [14] = read-out: Minimum Inhibitory Concentration, P. rettgeri 8(TNO 336)
# [15] = GN4359, read-out: Minimum Inhibitory Concentration
# [16] = GN4733, read-out: Minimum Inhibitory Concentration
# [17] = GN1706, read-out: Minimum Inhibitory Concentration
# [18] = T7, read-out: Minimum Inhibitory Concentration
# [19] = IFO3168, read-out: Minimum Inhibitory Concentration
# [20] = GN3835, K. pneumoniae GN 3835, agar dilution, read-out: Minimum Inhibitory Concentration
Compound,MIC (P. vulgaris IFO 3988; [1]),MIC (Cit. freundii GN 99; [2]),"MIC (E. coli NIHJ; E. coli NIHJ, agar dilution)",MIC (K. pneumoniae DT; [3]),MIC (P. rettgeri 8(TNO 336); [4]),MIC (E. coli O-111; [5]),MIC (P. mirabilis GN 4359; [6]),MIC (P. rettgeri GN 4733; [7]),MIC (Cit. freundii GN 1706; [8]),MIC (E. coli T-7; [9]),MIC (P. morganii IFO 3168; [10]),MIC (P. vulgaris IFO 3988; [11]),MIC (Cit. freundii GN 99; [12]),MIC (E. coli NIHJ),MIC (K. pneumoniae DT),MIC (K. pneumoniae GN 3835; [13]),MIC (P. rettgeri 8(TNO 336); [14]),MIC (P. mirabilis GN 4359; [15]),MIC (P. rettgeri GN 4733; [16]),MIC (Cit. freundii GN 1706; [17]),further results
"Cc1nsc(SCC2=C(C(=O)O)N3C(=O)C(NC(=O)Cc4csc(=N)n4O)C3SC2)n1 (stereo not drawn) [Example 15, sodium 7-[2-(2-imino-3-hydroxy-4-thiazolin-4-yl)acetamido]-3-(3-methyl-1,2,4-thiadiazol-5-yl) thiomethyl-3-cephem-4-carboxylate]",0.1 µg/mL,0.78 µg/mL,0.39 µg/mL,0.1 µg/mL,≤ 0.012 µg/mL,0.1 µg/mL,0.1 µg/mL,0.2 µg/mL,12.5 µg/mL,6.25 µg/mL,1.56 µg/mL,–,–,–,–,–,–,–,–,–,–
"Cc1nnc(SCC2=C(C(=O)[O-])N3C(=O)C(NC(=O)Cn4cnnn4)[C@H]3SC2)s1.[Na+] (stereo partly drawn) [Cefazolin, sodium 7-(1H-tetrazol-1-yl)acetamido-3-(2-methyl-1,3,4-thiadiazol-5-yl)thiomethyl-3-cephem-4-carboxylate, reference compound]",–,–,–,–,–,1.56 µg/mL,–,–,–,–,–,3.13 µg/mL,50 µg/mL,1.56 µg/mL,1.56 µg/mL,12.5 µg/mL,0.2 µg/mL,3.13 µg/mL,> 100 µg/mL,> 100 µg/mL,MIC (E. coli T-7; [18]): > 100 µg/mL; MIC (P. morganii IFO 3168; [19]): > 100 µg/mL
"Cn1nnnc1SCC1=C(C(=O)O)N2C(=O)C(NC(=O)Cc3csc(=N)n3O)C2SC1 (stereo not drawn) [Example 5, sodium 7-[2-(2-imino-3-hydroxy-4-thiazolin-4-yl)acetamido]-3-(1-methyltetrazol-5-yl) thiomethyl-3-cephem-4-carboxylate]",0.2 µg/mL,0.39 µg/mL,0.05 µg/mL,0.05 µg/mL,≤ 0.03 µg/mL,≤ 0.03 µg/mL,0.1 µg/mL,0.05 µg/mL,0.78 µg/mL,1.56 µg/mL,0.78 µg/mL,–,–,–,–,–,–,–,–,–,"MIC (K. pneumoniae GN 3835; [20]): 0.1 µg/mL; MIC (Ent. cloacae IFO 12937; IFO12937, Ent. cloacae IFO 12937, agar dilution, read-out: Minimum Inhibitory Concentration): 6.25 µg/mL"
"N=c1scc(CC(=O)NC2C(=O)N3C(C(=O)O)=C(CSc4nnnn4CCO)CSC23)n1O (stereo not drawn) [Example 17, sodium 7-[2-(2-imino-3-hydroxy-4-thiazolin-4-yl)acetamido]-3-[1-(2-hydroxyethyl)-1H-tetrazol-5-yl]thiomethyl-3-cephem-4-carboxylate]",0.2 µg/mL,0.39 µg/mL,0.1 µg/mL,0.05 µg/mL,≤ 0.012 µg/mL,0.05 µg/mL,0.1 µg/mL,0.05 µg/mL,12.5 µg/mL,1.56 µg/mL,0.39 µg/mL,–,–,–,–,–,–,–,–,–,MIC (K. pneumoniae GN 3835; [20]): 0.1 µg/mL
"N=c1scc(CC(=O)NC2C(=O)N3C(C(=O)O)=C(CSc4nnc(C(F)(F)F)s4)CSC23)n1O (stereo not drawn) [Example 16, sodium 7-[2-(2-imino-3-hydroxy-4-thiazolin-4-yl)acetamido]-3-(2-trifluorometyl-1,3,4-thiadiazol-5-yl)thiomethyl-3-cephem-4-carboxylate]",0.2 µg/mL,0.78 µg/mL,0.78 µg/mL,0.39 µg/mL,≤ 0.012 µg/mL,–,0.78 µg/mL,1.56 µg/mL,6.25 µg/mL,12.5 µg/mL,3.13 µg/mL,–,–,–,–,–,–,–,–,–,"MIC (E. coli O-111; O111, read-out: Minimum Inhibitory Concentration): 0.39 µg/mL"
"Cn1c(CO)nnc1SCC1=C(C(=O)[O-])N2C(=O)C(NC(=O)Cc3csc(=N)n3O)[C@H]2SC1.[Na+] (stereo partly drawn) [Example 8, sodium 7-[2-(2-imino-3-hydroxy-4-thiazolin-4-yl)acetamido]-3-(3-hydroxymethyl-4-methyl-1,2,4-triazol-5-yl)thiomethyl-3-cephem-4-carboxylate]",–,–,–,–,–,≤ 0.2 µg/mL,–,–,–,–,–,0.39 µg/mL,0.78 µg/mL,≤ 0.2 µg/mL,≤ 0.2 µg/mL,≤ 0.2 µg/mL,≤ 0.2 µg/mL,≤ 0.2 µg/mL,≤ 0.2 µg/mL,3.13 µg/mL,"MIC (E. coli T-7; [18]): 1.56 µg/mL; MIC (P. morganii IFO 3168; [19]): ≤ 0.2 µg/mL; MIC (Ent. cloacae IFO 12937; IFO12937, read-out: Minimum Inhibitory Concentration): 12.5 µg/mL"
